The values below come from US9320278B2, “Methods of controlling insects” (Syngenta Participations AG, priority 2012, dated 2016).

The subject of the assay is Anthonomus grandis (Cotton Boll Weevil). The assay can be described thus: Anthonomus grandis (Cotton Boll Weevil) test on treated cotton plants, mortality. The assay is classed as in vivo. On the procedure:
Anthonomus grandis (Cotton Boll Weevil)
Cotton plants are treated (100 mL spray volume) and 10 adult weevils are added to each plant (2 replicates per concentration). 5 days after infestation the mortality is assessed.
Compounds are tested according to the above method.

The mark [1] stands for this setting: application rate 0.2 ppm, treated cotton plants, 10 adult weevils per plant, mortality 5 days after infestation.
[2] abbreviates: application rate 0.8 ppm, treated cotton plants, 10 adult weevils per plant, mortality 5 days after infestation.
Setting [3] is: application rate 3 ppm, treated cotton plants, 10 adult weevils per plant, mortality 5 days after infestation.
Where [4] appears, read: application rate 12.5 ppm, treated cotton plants, 10 adult weevils per plant, mortality 5 days after infestation.
Setting [5] is: application rate 50 ppm, treated cotton plants, 10 adult weevils per plant, mortality 5 days after infestation.
Setting [6] is: application rate 0.01 ppm, treated cotton plants, 10 adult weevils per plant, mortality 5 days after infestation.
Setting [7] is: application rate 0.05 ppm, treated cotton plants, 10 adult weevils per plant, mortality 5 days after infestation.
Setting [8] is: comparative example, application rate 0.8 ppm, Anthonomus grandis (Cotton boll weevil).
[9] abbreviates: comparative example, application rate 3 ppm, Anthonomus grandis (Cotton boll weevil).
The mark [10] stands for this setting: comparative example, application rate 12.5 ppm, Anthonomus grandis (Cotton boll weevil).

With `Cc1cc(C2=NOC(c3cc(Cl)cc(Cl)c3)(C(F)(F)F)C2)ccc1C(=O)NC1CON(C)C1=O` (mixture of isomers) [Compound A2], the Control/% stood at 45% under setting [1]; 80% under setting [2]; 100% under setting [3]; 100% under setting [4]; 100% under setting [5].
In turn, `CCN1OC[C@@H](NC(=O)c2ccc(C3=NO[C@@](c4cc(Cl)c(F)c(Cl)c4)(C(F)(F)F)C3)cc2Cl)C1=O` [Compound A19] came in with a Control/% under setting [1] of 60%; a Control/% under setting [2] of 30%; a Control/% under setting [3] of 85%; a Control/% under setting [4] of 95%; a Control/% under setting [5] of 100%.
On to `CCN1OC[C@@H](NC(=O)c2ccc(C3=NO[C@@](c4cc(Cl)cc(C(F)(F)F)c4)(C(F)(F)F)C3)c3ccccc23)C1=O` [Compound A18], for which the Control/% is, setting by setting: under setting [1], 0%; under setting [2], 40%; under setting [3], 30%; under setting [4], 35%; under setting [5], 100%.
Consider `Cc1cc(C2=NOC(c3cc(Cl)cc(Cl)c3)(C(F)(F)F)C2)ccc1C(=O)NC1CON(CC(F)(F)F)C1=O` (mixture of isomers) [Compound A21], for which the Control/% under setting [1] is on record as 70%, the Control/% under setting [4] turned out to be 100% and the Control/% under setting [5] was determined as 100%.
With `CCN1OC[C@@H](NC(=O)c2ccc(C3=NO[C@@](c4cc(Cl)cc(Cl)c4)(C(F)(F)F)C3)cc2C)C1=O` [Compound A17], the Control/% stood at 20% under setting [1]; 50% under setting [2]; 100% under setting [3]; 100% under setting [4]; 100% under setting [5].
Regarding `CCN1OC[C@@H](NC(=O)c2ccc(C3=NO[C@@](c4cc(Cl)c(F)c(Cl)c4)(C(F)(F)F)C3)cc2C)C1=O` [Compound A20], the Control/% is given as 15% under setting [1]; 60% under setting [2]; 100% under setting [3]; 100% under setting [4]; 100% under setting [5].
For `CCN1OCC(NC(=O)c2ccc(C3=NOC(c4cc(Cl)cc(Cl)c4)(C(F)(F)F)C3)cc2C)C1=O` (mixture of isomers) [Compound A9], the Control/% is, setting by setting: under setting [1], 25%; under setting [2], 15%; under setting [3], 75%; under setting [4], 100%; under setting [5], 100%.
Turning to `Cc1cc(C2=NOC(c3cc(Cl)cc(Cl)c3)(C(F)(F)F)C2)ccc1C(=O)NC1CON(CC(F)(F)F)C1=O` (mixture of isomers) [Compound A8], the Control/% was found to be 20% under setting [6]; 35% under setting [7]; 70% under setting [1]; 100% under setting [2]; 100% under setting [3].
Consider `Cc1cc(C2=NOC(c3cc(Cl)cc(Cl)c3)(C(F)(F)F)C2)ccc1C(=O)N[C@@H]1CON(CC(F)(F)F)C1=O` (stereo partly drawn) [Compound of the invention], for which the Control/% by setting is: under setting [8], 100%; under setting [9], 100%; under setting [10], 100%.
Turning to `Cc1cc(C2=NO[C@@](c3cc(Cl)cc(Cl)c3)(C(F)(F)F)C2)ccc1C(=O)N[C@@H]1CON(CC(F)(F)F)C1=O` [Compound A16], the Control/% came to 0% under setting [6]; 55% under setting [7]; 100% under setting [1]; 100% under setting [2]; 100% under setting [3].
Molecule `CCN1OCC(NC(=O)c2ccc(C3=NOC(c4cc(Cl)c(F)c(Cl)c4)(C(F)(F)F)C3)cc2C)C1=O` (mixture of isomers) [Compound A5] came in with a Control/% under setting [1] of 40%; a Control/% under setting [2] of 40%; a Control/% under setting [3] of 95%; a Control/% under setting [4] of 100%; a Control/% under setting [5] of 100%.
`Cc1cc(C2=NOC(c3cc(Cl)cc(Cl)c3)(C(F)(F)F)C2)ccc1C(=O)NC1CON(CC(F)F)C1=O` (mixture of isomers) [Compound A6]: the Control/% reads like this: under setting [6], 35%; under setting [7], 50%; under setting [1], 95%; under setting [2], 100%; under setting [3], 100%.
For `Cc1cc(C2=NO[C@@](c3cc(Cl)cc(Cl)c3)(C(F)(F)F)C2)ccc1C(=O)N[C@H]1CON(CC(F)(F)F)C1=O` [Compound A3], the Control/% was determined as 60% under setting [1]; 60% under setting [2]; 100% under setting [3]; 100% under setting [4]; 100% under setting [5].
Turning to `Cc1cc(C2=NOC(c3cc(Cl)cc(Cl)c3)(C(F)(F)F)C2)ccc1C(=O)N[C@@H]1CON(Cc2ccccc2)C1=O` (stereo partly drawn) [Reference compound, reference compound], the Control/% is given as 10% under setting [8], 30% under setting [9] and 30% under setting [10].
The molecule `Cc1cc(C2=NOC(c3cc(Cl)c(Cl)c(Cl)c3)(C(F)(F)F)C2)ccc1C(=O)NC1CON(CC(F)(F)F)C1=O` (mixture of isomers) [Compound A1] yielded a Control/% under setting [1] of 45%; a Control/% under setting [2] of 90%; a Control/% under setting [3] of 100%; a Control/% under setting [4] of 100%; a Control/% under setting [5] of 95%.
